According to patent US10787452B2 (Vertex Pharmaceuticals Incorporated, priority 2012, dated 2020):

Tested on: HCT116 colorectal cancer cells
Test: Cisplatin sensitization assay (96 h cell viability MTS);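 further: compound concentration needed to lower the Cisplatin-alone IC50 by a set fold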
Assay type: cell-based
Details: 96 h MTS, compound plus Cisplatin
In short: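 Test compound and cisplatin were added together as a full matrix of 2-fold serial dilutions, each from a top final concentration of 10 μM. Cells were incubated 96 h at 37° C in 5% CO2, then viability was read by MTS after a further 1 h incubation.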

| Structure (SMILES) | Cisplatin Sensitization Assay |
| --- | --- |
| CN1C(=O)CCC12CCN(c1ccncc1NC(=O)c1c(N)nn3cc(F)cnc13)CC2 [I-N-235, 2-amino-6-fluoro-N-(4-(1-methyl-2-oxo-1,8-diazaspiro[4.5]decan-8-yl)pyridin-3-yl)pyrazolo[1,5-a]pyrimidine-3-carboxamide] | ++ (Compounds with a Cisplatin sensitization value >0.02 μM but <0.2 μM are marked with “++.”) |
| CN1CC2(CCN(c3ccncc3NC(=O)c3c(N)nn4cc(F)cnc34)CC2)CC1=O [I-N-236, 2-amino-6-fluoro-N-(4-(2-methyl-3-oxo-2,8-diazaspiro[4.5]decan-8-yl)pyridin-3-yl)pyrazolo[1,5-a]pyrimidine-3-carboxamide] | +++ (Compounds with a Cisplatin sensitization value of <0.02 μM are marked with “+++.”) |
| Cc1cncc(NC(=O)c2c(N)nn3cc(F)cnc23)c1-n1nccc1C [I-N-237] | + (Compounds with a Cisplatin sensitization value >0.2 μM but <5 μM are marked with “+.”) |
| Nc1nn2cc(F)cnc2c1C(=O)Nc1cnccc1N1CCN2C(=O)OCC2C1 (stereo not drawn) [I-N-238, 2-amino-6-fluoro-N-(4-(3-oxotetrahydro-1H-oxazolo[3,4-a]pyrazin-7(3H)-yl)pyridin-3-yl)pyrazolo[1,5-a]pyrimidine-3-carboxamide] | ++ (Compounds with a Cisplatin sensitization value >0.02 μM but <0.2 μM are marked with “++.”) |
| Nc1nn2cc(F)cnc2c1C(=O)Nc1cncc(F)c1N1CCC2(CC1)COC2 [I-N-239, 2-amino-6-fluoro-N-(5-fluoro-4-(2-oxa-7-azaspiro[3.5]nonan-7-yl)pyridin-3-yl)pyrazolo[1,5-a]pyrimidine-3-carboxamide] | +++ (Compounds with a Cisplatin sensitization value of <0.02 μM are marked with “+++.”) |
| CN1CCN2CCN(c3c(F)cncc3NC(=O)c3c(N)nn4cc(F)cnc34)CC2C1=O (stereo not drawn) [I-N-240, 2-amino-6-fluoro-N-(5-fluoro-4-(8-methyl-9-oxohexahydro-1H-pyrazino[1,2-a]pyrazin-2(6H)-yl)pyridin-3-yl)pyrazolo[1,5-a]pyrimidine-3-carboxamide] | ++ (Compounds with a Cisplatin sensitization value >0.02 μM but <0.2 μM are marked with “++.”) |
| Nc1nn2cc(F)cnc2c1C(=O)Nc1cnccc1N1CCC(c2ncon2)CC1 [I-N-241, N-(4-(4-(1,2,4-oxadiazol-3-yl)piperidin-1-yl)pyridin-3-yl)-2-amino-6-fluoropyrazolo[1,5-a]pyrimidine-3-carboxamide] | +++ (Compounds with a Cisplatin sensitization value of <0.02 μM are marked with “+++.”) |
| Cc1ncnn1-c1c(F)cncc1NC(=O)c1c(N)nn2cc(F)cnc12 [I-N-242, 2-amino-6-fluoro-N-(5-fluoro-4-(5-methyl-1H-1,2,4-triazol-1-yl)pyridin-3-yl)pyrazolo[1,5-a]pyrimidine-3-carboxamide] | + (Compounds with a Cisplatin sensitization value >0.2 μM but <5 μM are marked with “+.”) |
| CC1(S(C)(=O)=O)CCN(c2ccncc2NC(=O)c2c(N)nn3cc(F)cnc23)CC1 [I-N-243, 2-amino-6-fluoro-N-(4-(4-methyl-4-(methylsulfonyl)piperidin-1-yl)pyridin-3-yl)pyrazolo[1,5-a]pyrimidine-3-carboxamide] | +++ (Compounds with a Cisplatin sensitization value of <0.02 μM are marked with “+++.”) |
| Nc1nn2cc(F)cnc2c1C(=O)Nc1cnccc1N1CCN2C(=O)CCCC2C1 (stereo not drawn) [I-N-244, 2-amino-6-fluoro-N-(4-(6-oxohexahydro-1H-pyrido[1,2-a]pyrazin-2(6H)-yl)pyridin-3-yl)pyrazolo[1,5-a]pyrimidine-3-carboxamide] | +++ (Compounds with a Cisplatin sensitization value of <0.02 μM are marked with “+++.”) |
| CC(C)N1CCN2CCN(c3ccncc3NC(=O)c3c(N)nn4cc(F)cnc34)CC2C1=O (stereo not drawn) [I-N-245, 2-amino-6-fluoro-N-(4-(8-isopropyl-9-oxohexahydro-1H-pyrazino[1,2-a]pyrazin-2(6H)-yl)pyridin-3-yl)pyrazolo[1,5-a]pyrimidine-3-carboxamide] | ++ (Compounds with a Cisplatin sensitization value >0.02 μM but <0.2 μM are marked with “++.”) |
| Nc1nn2cc(F)cnc2c1C(=O)Nc1cncc(F)c1N1CCCC1 [I-N-246, 2-amino-6-fluoro-N-(5-fluoro-4-(pyrrolidin-1-yl)pyridin-3-yl)pyrazolo[1,5-a]pyrimidine-3-carboxamide] | ++ (Compounds with a Cisplatin sensitization value >0.02 μM but <0.2 μM are marked with “++.”) |
| Nc1nn2cc(F)cnc2c1C(=O)Nc1cnccc1N1CCN2[C@@H](CCS2(=O)=O)C1 [I-N-247, (S)-2-amino-N-(4-(1,1-dioxidotetrahydro-2H-isothiazolo[2,3-a]pyrazin-5(3H)-yl)pyridin-3-yl)-6-fluoropyrazolo[1,5-a]pyrimidine-3-carboxamide] | +++ (Compounds with a Cisplatin sensitization value of <0.02 μM are marked with “+++.”) |
| Nc1nn2cc(F)cnc2c1C(=O)Nc1cncc(F)c1N1CCN2C(=O)OC[C@@H]2C1 [I-N-248, (S)-2-amino-6-fluoro-N-(5-fluoro-4-(3-oxotetrahydro-1H-oxazolo[3,4-a]pyrazin-7(3H)-yl)pyridin-3-yl)pyrazolo[1,5-a]pyrimidine-3-carboxamide] | ++ (Compounds with a Cisplatin sensitization value >0.02 μM but <0.2 μM are marked with “++.”) |
| Nc1nn2cc(F)cnc2c1C(=O)Nc1cnccc1N1CCN(C(=O)C2COC2)CC1 [I-N-249] | +++ (Compounds with a Cisplatin sensitization value of <0.02 μM are marked with “+++.”) |
| Nc1nn2cc(F)cnc2c1C(=O)Nc1cncc(F)c1N1CCS(=O)(=O)CC1 [I-N-250, 2-amino-N-(4-(1,1-dioxidothiomorpholino)-5-fluoropyridin-3-yl)-6-fluoropyrazolo[1,5-a]pyrimidine-3-carboxamide] | ++ (Compounds with a Cisplatin sensitization value >0.02 μM but <0.2 μM are marked with “++.”) |
| CC(=O)N1CC2(CCN(c3ccncc3NC(=O)c3c(N)nn4cc(F)cnc34)CC2)C1 [I-N-251, N-(4-(2-acetyl-2,7-diazaspiro[3.5]nonan-7-yl)pyridin-3-yl)-2-amino-6-fluoropyrazolo[1,5-a]pyrimidine-3-carboxamide] | +++ (Compounds with a Cisplatin sensitization value of <0.02 μM are marked with “+++.”) |
| CC1(C)CN(c2ccncc2NC(=O)c2c(N)nn3cc(F)cnc23)CCS1(=O)=O [I-N-252, 2-amino-N-(4-(2,2-dimethyl-1,1-dioxidothiomorpholino)pyridin-3-yl)-6-fluoropyrazolo[1,5-a]pyrimidine-3-carboxamide] | +++ (Compounds with a Cisplatin sensitization value of <0.02 μM are marked with “+++.”) |
| Nc1nn2cc(F)cnc2c1C(=O)Nc1cnccc1N1CCCC2(COC2)C1 [I-N-253, N-(4-(2-oxa-6-azaspiro[3.5]nonan-6-yl)pyridin-3-yl)-2-amino-6-fluoropyrazolo[1,5-a]pyrimidine-3-carboxamide] | +++ (Compounds with a Cisplatin sensitization value of <0.02 μM are marked with “+++.”) |
| Nc1nn2cc(F)cnc2c1C(=O)Nc1cnccc1N1CCC2(CCNC2)CC1 [I-N-255, N-(4-(2,8-diazaspiro[4.5]decan-8-yl)pyridin-3-yl)-2-amino-6-fluoropyrazolo[1,5-a]pyrimidine-3-carboxamide] | ++ (Compounds with a Cisplatin sensitization value >0.02 μM but <0.2 μM are marked with “++.”) |
| Cc1nnc(N2CCN(c3ccncc3NC(=O)c3c(N)nn4cc(F)cnc34)CC2)o1 [I-N-256, 2-amino-6-fluoro-N-(4-(4-(5-methyl-1,3,4-oxadiazol-2-yl)piperazin-1-yl)pyridin-3-yl)pyrazolo[1,5-a]pyrimidine-3-carboxamide] | ++ (Compounds with a Cisplatin sensitization value >0.02 μM but <0.2 μM are marked with “++.”) |
| CC(=O)N1CCC2(CCN(c3ccncc3NC(=O)c3c(N)nn4cc(F)cnc34)CC2)C1 [I-N-257, N-(4-(2-acetyl-2,8-diazaspiro[4.5]decan-8-yl)pyridin-3-yl)-2-amino-6-fluoropyrazolo[1,5-a]pyrimidine-3-carboxamide] | +++ (Compounds with a Cisplatin sensitization value of <0.02 μM are marked with “+++.”) |
| Nc1nn2cc(F)cnc2c1C(=O)Nc1cnccc1N1CCN2C(=O)CC[C@@H]2C1 [I-N-258, (R)-2-amino-6-fluoro-N-(4-(6-oxohexahydropyrrolo[1,2-a]pyrazin-2(1H)-yl)pyridin-3-yl)pyrazolo[1,5-a]pyrimidine-3-carboxamide] | ++ (Compounds with a Cisplatin sensitization value >0.02 μM but <0.2 μM are marked with “++.”) |
| Cn1ccc2cncc(NC(=O)c3c(N)nn4cc(F)cnc34)c21 [I-N-259, 2-amino-6-fluoro-N-(1-methyl-1H-pyrrolo[3,2-c]pyridin-7-yl)pyrazolo[1,5-a]pyrimidine-3-carboxamide] | + (Compounds with a Cisplatin sensitization value >0.2 μM but <5 μM are marked with “+.”) |
| Cc1nonc1N1CCN(c2ccncc2NC(=O)c2c(N)nn3cc(F)cnc23)CC1 [I-N-260, 2-amino-6-fluoro-N-(4-(4-(4-methyl-1,2,5-oxadiazol-3-yl)piperazin-1-yl)pyridin-3-yl)pyrazolo[1,5-a]pyrimidine-3-carboxamide] | +++ (Compounds with a Cisplatin sensitization value of <0.02 μM are marked with “+++.”) |
| COC(=O)N1CCN(c2c(F)cncc2NC(=O)c2c(N)nn3cc(F)cnc23)CC1 [I-N-261, methyl-4-(3-(2-amino-6-fluoropyrazolo[1,5-a]pyrimidine-3-carboxamido)-5-fluoropyridin-4-yl)piperazine-1-carboxylate] | +++ (Compounds with a Cisplatin sensitization value of <0.02 μM are marked with “+++.”) |
| CC(=O)N1CCCC12CCN(c1ccncc1NC(=O)c1c(N)nn3cc(F)cnc13)CC2 [I-N-262, N-(4-(1-acetyl-1,8-diazaspiro[4.5]decan-8-yl)pyridin-3-yl)-2-amino-6-fluoropyrazolo[1,5-a]pyrimidine-3-carboxamide] | +++ (Compounds with a Cisplatin sensitization value of <0.02 μM are marked with “+++.”) |
